Test results published in publication PMC8772772, “Enantioselective Synthesis and Pharmacological Evaluation of Aza-CGP37157–Lipoic Acid Hybrids for the Treatment of Alzheimer’s Disease” (Antioxidants, 2022).
Values joined by “and” are separate entries in the source; they are usually repeats but may differ in a detail not shown here. Equal entries are not always repeated.

What was measured:
BV2 microglial cells = experiment: Nitrite production reduction in LPS-stimulated BV2 microglial cells (Griess); assay type: cell-based, mouse; conditions: BV2 + LPS, 0.3–30 µM
Description: BV2 microglial cells were seeded at 2 × 10^4 cells/well and treated with compounds at increasing concentrations during 24 h in complete culture media. Then, treatments were removed, and BV2 cells were co-incubated with compounds and LPS (100 ng/mL) (O127:B8, SigmaAldrich, L3129) for additional 18 h in culture media supplemented with 1% FBS. Each plate included non-treated cells as basal nitrite production. Thereafter, nitrite production was determined by using the modified Griess assay. In brief, samples (150 μL) were mixed with DAPSONE (75 μL) (SigmaAldrich, A74807) and NEDA (75 μL) (SigmaAldrich, 33461), and the mixture was incubated at room temperature for 5 min. Light absorption was measured at 550 nm in a microplate reader (SPECTROstar nano, BMG Labtech). Basal nitrite production was referred to as 100% of nitrite production, and all data were normalized to the basal condition. Concentration needed to reduce nitrite production to 50% was calculated from graphical representation of percentage of nitrite production vs. compound concentration, and data were fitted by non-linear regression and interpolated to 50%.
Chronic neuroinflammation is considered a key pathological event in the early stages of AD development. Among immune cells present at CNS, microglia is related to host defense and tissue repair. Nonetheless, chronic neuroinflammation induced by an adverse environment of protein aggregates and exacerbated OS induces a neurotoxic activity of microglia that, finally, leads to neuronal death. […] To this end, we selected the BV2 microglial cell model stimulated by lipopolysaccharide (LPS), a TLR4 agonist that activates the pro-inflammatory response. CGP37157, R- and S-LA; analogue compounds rac-3a and (rac,R)-3b; and precursor derivatives 6 were included with comparative and reference purposes. Microglial BV2 cells were treated with increasing concentrations of the corresponding compound (0.3, 3, 10 and 30 µM) for 24 h following a pre-incubation protocol. Thereafter, treatments were exchanged by a combination of the corresponding compound at desired concentration and LPS (100 ng/mL) during 18 h. At the end of this period, nitrite production was evaluated by the Griess method as an indirect measurement of iNOS enzyme expression and BV2 activation.

[1] = system: SH-SY5Y neuroblastoma cells; experiment: Neuroprotection against rotenone/oligomycin A oxidative stress in SH-SY5Y cells (MTT); assay type: cell-based, human; conditions: compound 1 μM 24 h, then compound + R/O (30/10 μM) 24 h; for % Survival: basal = 100, R/O alone 53.4
Description: (§1) Human neuroblastoma SH-SY5Y cells were plated in 96-well clear multi-well plates (6 × 10^4 cells/well). The potential neuroprotective activity of compounds against OS was evaluated using the rotenone (30 μM) (SigmaAldrich, R8875) and oligomycin A (10 μM) (SigmaAldrich, 75351) (R/O) toxic mixture. Neuroprotection activity against Tau hyperphosphorylation was evaluated by using the okadaic acid (20 nM) model. Cells were pre-incubated with each compound (1 µM) for 24 h, and then treatments were removed and cells were incubated with compounds (1 µM) in the presence the corresponding toxic for additional 24 h. At the end of the experiments, viability was determined by the MTT method. Data were normalized from cell death induced by the toxic stimuli (considered as 100% cell death). Then, the protection percentages were calculated by subtracting from the death induced by toxic stimuli, the death in the presence of the compound.
(§2) The tetrazolium ring of MTT can be cleaved by active dehydrogenases to produce a formazan precipitate. At the end of the experiments, MTT (SigmaAldrich, M2003) stock solution was added to each well to achieve a final concentration of 0.5 mg/mL. Cells were incubated for 2 h. Thereafter, culture media was removed, and DMSO was added to each well to dissolve the formazan precipitate. Finally, absorbance was measured in a microplate reader (SPECTROstar nano, BMG Labtech) at 570 nm. Absorbance obtained in basal conditions was considered as 100% cell viability.
Thus, we selected a pre-incubation protocol to evaluate their potential neuroprotective capacity based on the NRF2-induction activity and direct antioxidant effect. Compound pre-incubation would induce the expression of antioxidant enzymes regulated by the phase II antioxidant response, thus promoting cells’ survival. The co-incubation period would also evaluate their capacity to trap free radicals produced by intoxicated mitochondria. SH-SY5Y neuroblastoma cells were treated with compounds (1 µM) during 24 h, and then cells were co-incubated with the corresponding compound at the same concentration and the R/O combination (30/10 µM) for additional 24 h. Melatonin, a well-known antioxidant natural neurohormone, was included as a positive control (1 µM). Previously reported racemic derivatives (rac-3a and (rac,R)-3b) and their precursors ((±)-6, R-6 and S-6) were included for comparative purposes at the same concentration.

[2] = system: SH-SY5Y neuroblastoma cells; experiment: Neuroprotection against okadaic acid hyperphosphorylation in SH-SY5Y cells (MTT); assay type: cell-based, human; conditions: for % Survival / % Protection: compound 1 μM 24 h, then compound + OA 24 h; for % Survival: basal = 100, OA alone 54.7; for % Protection: n.p = compound does not protect cells
Description: as §1, §2
Considering these precedents, we envisaged the evaluation of our compounds in a hyperphosphorylation toxicity model induced by okadaic acid (OA), a protein phosphatase 2A inhibitor [58, 59]. This inhibition causes an imbalance between kinase and phosphatase action, leading to hyperphosphorylation of proteins, in particular, Tau. Thus, treatment of SH-SY5Y neuroblastoma cells with OA is a well-stablished model of Tau hyperphosphorylation. Similarly, to the method used for the OS model, we selected a pre-incubation/co-incubation protocol to evaluate the potential neuroprotection capacity related to the NRF2 induction/antioxidant properties of the compounds. Cells were treated with compounds (±)-6, R-6, S-6 or 7a–d (1 µM) during 24 h; thereafter, cells were co-treated with compounds (1 µM) and OA (20 nM) for a further 24 h. Melatonin was also included as a positive control. Finally, cellular viability was evaluated by the MTT method. […] Finally, the (R,S)-7c diastereomer was not able to afford any protection, a result that might be in line with its low NRF2 induction capacity.

| Structure (SMILES) | anti-inflammatory activity (nitrite production) at the evaluated concentrations (BV2 microglial cells) | % Protection [1] [%] | % Survival [1] [%] | % Survival [2] [%] | % Protection [2] | neuroprotective capacity relative to (S,R)-7b, folds less potent ([2]; OA model, 1 µM) [folds] |
| --- | --- | --- | --- | --- | --- | --- |
| O=C1CN(CCOC(=O)CCCC[C@@H]2CCSS2)[C@H](c2ccccc2Cl)c2cc(Cl)ccc2N1 [(R,S)-7c, 2-((S)-7-Chloro-5-(2-chlorophenyl)-2-oxo-1,2,3,5-tetrahydro-4H-benzo[e][1,4]diazepin-4-yl)ethyl 5-((R)-1,2-dithiolan-3-yl)pentanoate] | no significant activity | 47.2 | 76.1 ± 2.9 | 50.7 ± 15.6 | not protective and n.p |  |
| O=C1CN(CCOC(=O)CCCC[C@@H]2CCSS2)[C@@H](c2ccccc2Cl)c2cc(Cl)ccc2N1 [(R,R)-7d, 2-((R)-7-Chloro-5-(2-chlorophenyl)-2-oxo-1,2,3,5-tetrahydro-4H-benzo[e][1,4]diazepin-4-yl)ethyl 5-((R)-1,2-dithiolan-3-yl)pentanoate] | no significant activity | 50.7 | 77.6 ± 4.4 | 63.3 ± 8.7 | 21% | 2 |
| O=C1CN(CCOC(=O)CCCC[C@H]2CCSS2)[C@H](c2ccccc2Cl)c2cc(Cl)ccc2N1 [(S,S)-7a, 2-((S)-7-Chloro-5-(2-chlorophenyl)-2-oxo-1,2,3,5-tetrahydro-4H-benzo[e][1,4]diazepin-4-yl)ethyl 5-((S)-1,2-dithiolan-3-yl)pentanoate] | no significant activity | 43.4 | 74.8 ± 3.2 | 63.2 ± 7.6 | 21.2% |  |
| O=C1CN(CCOC(=O)CCCC[C@H]2CCSS2)[C@@H](c2ccccc2Cl)c2cc(Cl)ccc2N1 [(S,R)-7b, 2-((R)-7-Chloro-5-(2-chlorophenyl)-2-oxo-1,2,3,5-tetrahydro-4H-benzo[e][1,4]diazepin-4-yl)ethyl 5-((S)-1,2-dithiolan-3-yl)pentanoate] |  | 61.1 | 81.0 ± 4.7 | 70.6 ± 10.3 | 41.9% and 40.2% |  |
